The values below come from patent US7964631B2, “Fused tricyclic compounds as inhibitors of tumor necrosis factor-α” (Piramal Life Sciences Limited, priority 2004, dated 2011).

The test system of series [1] is TNF-α. The series can be described thus: LPS-induced TNF-α production in peripheral blood mononuclear cells (secondary screening). The class given is cell-based. How it is done:
(§1) TNF-α production by LPS in peripheral blood mononuclear cells (PBMC) was measured according to the method described by Henry et al (J. Bioorg. Med. Chem. Lett., 8: 3335-3340, 1998). Briefly, blood was collected from healthy donors into Potassium EDTA vacutainer tubes (Vacutest Plast/Becton Dickinson). PBMC were isolated using gradient centrifugation in Ficoll-Paque solution (Pharmacia). Isolated PBMC were suspended in RPMI 1640 culture medium (Gibco BRL, Pasley, UK) containing 10% fetal bovine serum (FBS) (Hyclone, Utah, USA), 100 U/ml penicillin (Sigma Chemical Co. St Louis, Mo.) and 100 μg/ml streptomycin (Sigma Chemical Co. St Louis, Mo.). The cell concentration was adjusted to 1×10^6 cells/ml. The viability as determined by trypan blue dye exclusion was uniformly ≧98%. The cell suspension (100 μl) was added to the wells of a 96-well culture plate. Following cell plating, 79 μl of the culture medium and 1 μl of eight different concentrations of the test compounds (final concentration 0.03, 0.1, 0.3, 1, 3, 10, 30, 100 μM) dissolved in DMSO (dimethylsulfoxide, Sigma, Mo., USA) were added to the cells. The final concentration of DMSO was adjusted to 0.5%. The appropriate DMSO concentration was used as control. Rolipram (30 μM) was used as a standard compound. The plates were incubated for 30 min at 37° C. in an atmosphere of 5% CO2. Finally, 20 μl (10 μg/ml) per well of LPS, (Escherchia coli 0127:B8, Sigma Chemical Co., St. Louis, Mo.) was added, for a final concentration of 1 μg/ml. The plates were incubated at 37° C. for 4.5 h in an atmosphere of 5% CO2. To determine the cytotoxicity of the test compounds, the cell viability was assessed using MTS (3-(4,5-dimethylthiazol-2-yl)-5-(3-carboxymethoxyphenyl)-2-(4-sulfonyl)-2H-tetrazolium) reagent (Promega) after 4.5 h of incubation. Supernatants were harvested and assayed for TNF-α by ELISA as described by the manufacturer (R&D Systems, MN, BD Biosciences Pharmingen) or by cytotoxicity bioassay in L929 cells. The 50% inhibitory concentration (IC50) values were calculated by a nonlinear regression method using GraphPad software (Prism 3.03)

Series [2] relates to peripheral blood mononuclear cells (PBMC). The series can be described thus: Cytotoxicity of test compounds in PBMC, cell viability by MTS reagent. The class given is cell-based, human. How it is done: as §1
Background: Tetrazolium assays rely on reduction of a dye to a coloured formazan, in cell work by metabolically active cells.

Series [3] relates to TNF-α. Description: Whole blood cell culture assay: LPS-induced TNF-α release (primary screening). To be noted: test compound 1 μM, diluted whole blood of healthy donors, LPS 1 μg/ml, 4.5 h, vs DMSO control; for inhibition at 1 µM: Homo sapiens, Whole blood cell. The class given is cell-based, human. On the procedure:
TNF-α production by lipopolysaccharide (LPS) in whole blood was measured according to the method described by Wilson et al (J. Immunol. Methods, 139: 233-240, 1991). Briefly, blood was collected from healthy donors into potassium EDTA vacutainer tubes (Vacutest Plast/Becton Dickinson) and diluted with RPMI 1640 culture medium (Gibco BRL, Pasley, UK) containing 100 U/ml penicillin and 100 μg/ml streptomycin, (100× solution, Sigma Chemical Co. St Louis, Mo.) with no added serum. The white blood cell count was adjusted to 1×10^6 cells/ml and 100 μl/well of the diluted blood was transferred into 96-well culture plates. Following cell plating, 79 μl of culture medium and 1 μl of the test compounds (final concentration 1 μM) dissolved in DMSO (dimethylsulfoxide, Sigma, Mo., USA) was added to the cells. The final concentration of DMSO was adjusted to 0.5%. 1 μl of vehicle (0.5% DMSO) was used as control. Rolipram (100 μM) was used as a standard compound. The plates were incubated for 30 min at 37° C. in an atmosphere of 5% CO2. Finally, 20 μl (10 μg/ml) per well of LPS (Escherchia coli 0127:B8, Sigma Chemical Co., St. Louis, Mo.) was added, for a final concentration of 1 μg/ml. Plates were incubated at 37° C. for 4.5 h in an atmosphere of 5% CO2. Supernatants were harvested and assayed for TNF-α by ELISA as described by the manufacturer (R&D Systems, MN) or by cytotoxicity bioassay in L929 cells. Percent inhibition of TNF-α release in comparison to the control was calculated.

Setting [4] is: 4.5 h, TNF-α production in PBMC, LPS 1 μg/ml, ELISA or L929 bioassay.

`COC(=O)c1cc(C)c2c(c1)S(=O)(=O)Cc1cc(N(CCCl)CCCl)cc(Cl)c1O2` registered a melting point of 190 to 191 °C.
Still for that read-out and setting: as for `COC(=O)c1cc(C)c2c(c1)S(=O)(=O)Cc1cc(NC(=O)CCl)cc(Cl)c1O2` [Example 4, 4-Chloro-2-(2-chloro-acetylamino)-6-methyl-10,10-dioxo-10,11-dihydro-5-oxa-10lambda*6*-thia-dibenzo[a,d]cycloheptene-8-carboxylic acid methyl ester], the figure is 292 to 293 °C.
`COC(=O)c1cc(C)c2c(c1)S(=O)(=O)Cc1cc(NC(=O)CO)cc(Cl)c1O2` [Example 5A, 4-Chloro-2-(2-hydroxy-acetylamino)-6-methyl-10,10-dioxo-10,11-dihydro-5-oxa-10lambda*6*-thia-dibenzo[a,d]cycloheptene-8-carboxylic acid methyl ester] gave a 50% inhibitory concentration (IC50) in series [1] (setting [4]) of 8600 ± 1300 nM. For the same molecule, the “% toxicity (10 μM), 5 h” value in series [2] is listed as 00%.
The matching figures for `COC(=O)c1cc(C)c2c(c1)S(=O)(=O)Cc1cc(NC(=O)COC(C)=O)cc(Cl)c1O2` [Example 5B, 2-(2-Acetoxy-acetylamino)-4-chloro-6-methyl-10,10-dioxo-10,11-dihydro-5-oxa-10lambda*6*-thia-dibenzo[a,d]cycloheptene-8-carboxylic acid methyl ester]: 9100 ± 1600 nM and 00%.
As to `CCC(=O)Nc1cc(Cl)c2c(c1)CS(=O)(=O)c1cc(C(=O)OC)cc(C)c1O2` [Example 6, 4-Chloro-6-methyl-10,10-dioxo-2-propionylamino-10,11-dihydro-5-oxa-10lambda*6*-thia-dibenzo[a,d]cycloheptene-8-carboxylic acid methyl ester], the melting point was in the range of 226 to 228 °C. In series [3], this molecule gave an inhibition at 1 µM of 89%.
Regarding `CCOC(=O)c1cc(C)c2c(c1)S(=O)(=O)Cc1cc(NC=O)cc(Cl)c1O2` [Example 10, 4-Chloro-2-formylamino-6-methyl-10,10-dioxo-10,11-dihydro-5-oxa-10lambda*6*-thia-dibenzo[a,d]cycloheptene-8-carboxylic acid ethyl ester], the melting point lay within 202 to 204 °C.
Regarding `COC(=O)c1cc(C)c2c(c1)S(=O)(=O)Cc1cc(N(CCO)CCO)cc(Cl)c1O2` [Example 13, 2-[Bis-(2-hydroxy-ethyl)-amino]-4-chloro-6-methyl-10,10-dioxo-10,11-dihydro-5-oxa-10lambda*6*-thia-dibenzo[a,d]cycloheptene-8-carboxylic acid methyl ester], the melting point lay in the range of 199 to 201 °C.
On to `COC(=O)c1cc(C)c2c(c1)[S+]([O-])Cc1cc(N3CCNCC3)cc(Cl)c1O2.Cl` (centres unmarked) [Example 15, 4-Chloro-6-methyl-10-oxo-2-piperazin-1-yl-10,11-dihydro-5-oxa-10lambda*4*-thia-dibenzo[a,d]cycloheptene-8-carboxylic acid methyl ester hydrochloride], for which the melting point was greater than 320 °C. The molecule also displayed an IC50 in series [1] (setting [4]) of 550 nM. Moreover, the “% toxicity (10 μM), 5 h” value in series [2] came to 25%.
Regarding `COC(=O)c1cc(C)c2c(c1)S(=O)(=O)Cc1cc(N3CCNCC3)cc(Cl)c1O2.CS(=O)(=O)O` [Example 17, 4-Chloro-6-methyl-10,10-dioxo-2-piperazin-1-yl-10,11-dihydro-5-oxa-10lambda*6*-thia-dibenzo[a,d]cycloheptene-8-carboxylic acid methyl ester mesylate], the melting point fell in the range of 279 to 281 °C. Besides, the IC50 in series [1] (TNF-α production in PBMC; LPS 1 μg/ml, 4.5 h; ELISA or L929 bioassay; mesylate) amounted to 100 nM. Besides, the “% toxicity (10 μM), 5 h” value in series [2] is 66%.
For `CS(=O)(=O)O.Cc1cc(C(=O)O)cc2c1Oc1c(Cl)cc(N3CCNCC3)cc1CS2(=O)=O` [Example 19, 4-Chloro-6-methyl-10,10-dioxo-2-piperazin-1-yl-10,11-dihydro-5-oxa-10lambda*6*-thia-dibenzo[a,d]cycloheptene-8-carboxylic acid mesylate], the melting point lay in the range of 278 to 280 °C.
In turn, `COC(=O)c1cc(C)c2c(c1)S(=O)(=O)Cc1cc(N3CCOCC3)cc(Cl)c1O2` [Example 30, 4-Chloro-6-methyl-2-morpholin-4-yl-10,10-dioxo-10,11-dihydro-5-oxa-10lambda*6*-thia-dibenzo[a,d]cycloheptene-8-carboxylic acid methyl ester] yielded a melting point greater than 320 °C.
In series [1] (setting [4]), `COC(=O)c1cc(C)c2c(c1)S(=O)(=O)Cc1ccc(NCCN)c(Cl)c1O2.Cl` [Example 31, 3-(2-Amino-ethylamino)-4-chloro-6-methyl-10,10-dioxo-10,11-dihydro-5-oxa-10lambda*6*-thia-dibenzo[a,d]cycloheptene-8-carboxylic acid methyl ester hydrochloride] showed an IC50 of 840 nM. Besides, in series [3], at 1 µM the inhibition was 66%. Besides, the “% toxicity (10 μM), 5 h” value in series [2] was 21%.
The molecule `CCN1CCN(c2cc(Cl)c3c(c2)CS(=O)(=O)c2cc(CO)cc(C)c2O3)CC1` [Example 34, [4-Chloro-2-(4-ethyl-piperazin-1-yl)-6-methyl-10,10-dioxo-10,11-dihydro-5-oxa-10lambda*6*-thia-dibenzo[a,d]cyclohepten-8-yl]-methanol] registered a melting point of 230 to 232 °C.
As to `Cc1cc(C=O)cc2c1Oc1c(Cl)cc(N3CCNCC3)cc1CS2(=O)=O` [Example 35, 4-Chloro-6-methyl-10,10-dioxo-2-piperazin-1-yl-10,11-dihydro-5-oxa-10lambda*6*-thia-dibenzo[a,d]cycloheptene-8-carbaldehyde], in series [1] (setting [4]), the IC50 amounted to 1400 nM. In series [3], this molecule returned an inhibition at 1 µM of 45%. Also, the “% toxicity (10 μM), 5 h” value in series [2] amounted to 07%.
Regarding `COC(=O)c1cc(C)c2c(c1)S(=O)(=O)Cc1cc(N)cc(Cl)c1N2` [Example 37, 2-Amino-4-chloro-6-methyl-10,10-dioxo-10,11-dihydro-5H-10lambda*6*-thia-5-aza-dibenzo[a,d]-cycloheptene-8-carboxylic acid methylester], the melting point was 278 to 280 °C. In addition, at 1 µM the inhibition in series [3] was 33%.
Molecule `COC(=O)c1cc(C)c2c(c1)S(=O)(=O)Cc1cc(NC=O)cc(Cl)c1N2` [Example 38, 4-Chloro-2-formylamino-6-methyl-10,10-dioxo-10,11-dihydro-5H-10-lambda*6*-thia-5-aza-dibenzo[a,d]-cycloheptene-8-carboxylic acid methyl ester] came in with an IC50 in series [1] (TNF-α production in PBMC; LPS 1 μg/ml, 4.5 h; ELISA or L929 bioassay) of 1200 ± 1580 nM. Further, in series [3], the “% inhibition of TNF-α release” value is listed as 45%. Also, the “% toxicity (10 μM), 5 h” value in series [2] was 10 ± 04%.
For `COC(=O)c1ccc2c(c1)S(=O)(=O)Cc1ccccc1C2O` (centres unmarked) [Example 40, 5-Hydroxy-10,10-dioxo-10,11-dihydro-5H-10lambda*6*-thia-dibenzo[a,d]cycloheptene-8-carboxylic acid methyl ester], in series [1] (setting [4]), the IC50 was greater than 10000 nM. In addition, the “% toxicity (10 μM), 5 h” value in series [2] is 8%.

Broadly, the melting point is the temperature, or range, at which the solid turns liquid. As a reminder, the IC50 is the midpoint of a concentration-inhibition curve. Read a high IC50 as weaker potency in that assay. By inhibition is commonly meant the drop in the measured response relative to a control, in per cent. A high value points to a strong effect.
